Laboratory results as given in PubChem BioAssay (NCI).
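Test compounds were applied to cells in 96-well plates for 48 hours at 5 doses. The concentration for full growth arrest is given as TGI.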

Key:
Assay in all cases: NCI tumour cell line growth inhibition, 48 h
786-0 renal = test system: 786-0 renal
A549 NSCLC = test system: A549 NSCLC
ACHN renal = test system: ACHN renal
BT-549 breast = test system: BT-549 breast
CAKI-1 renal = test system: CAKI-1 renal
CCRF-CEM leukemia = test system: CCRF-CEM leukemia
COLO 205 colon = test system: COLO 205 colon
DU-145 prostate = test system: DU-145 prostate
EKVX NSCLC = test system: EKVX NSCLC
HCC-2998 colon = test system: HCC-2998 colon
HCT-116 colon = test system: HCT-116 colon
HCT-15 colon = test system: HCT-15 colon
HOP-62 NSCLC = test system: HOP-62 NSCLC
HS 578T breast = test system: HS 578T breast
HT29 colon = test system: HT29 colon
IGROV1 ovarian = test system: IGROV1 ovarian
K-562 leukemia = test system: K-562 leukemia
KM12 colon = test system: KM12 colon
LOX IMVI melanoma = test system: LOX IMVI melanoma
M14 melanoma = test system: M14 melanoma
MALME-3M melanoma = test system: MALME-3M melanoma
MCF7 breast = test system: MCF7 breast
MDA-MB-231 breast = test system: MDA-MB-231 breast
MDA-MB-435 = test system: MDA-MB-435
MOLT-4 leukemia = test system: MOLT-4 leukemia
NCI-H226 lung = test system: NCI-H226 lung
NCI-H23 lung = test system: NCI-H23 lung
NCI-H522 lung = test system: NCI-H522 lung
OVCAR-3 ovarian = test system: OVCAR-3 ovarian
OVCAR-4 ovarian = test system: OVCAR-4 ovarian
OVCAR-5 ovarian = test system: OVCAR-5 ovarian
OVCAR-8 ovarian = test system: OVCAR-8 ovarian
PC-3 prostate = test system: PC-3 prostate
RPMI-8226 leukemia = test system: RPMI-8226 leukemia
RXF 393 renal = test system: RXF 393 renal
SF-268 CNS = test system: SF-268 CNS
SF-295 CNS = test system: SF-295 CNS
SF-539 CNS = test system: SF-539 CNS
SK-MEL-2 melanoma = test system: SK-MEL-2 melanoma
SK-MEL-28 melanoma = test system: SK-MEL-28 melanoma
SK-MEL-5 melanoma = test system: SK-MEL-5 melanoma
SK-OV-3 ovarian = test system: SK-OV-3 ovarian
SN12C renal = test system: SN12C renal
SNB-19 CNS = test system: SNB-19 CNS
SNB-75 CNS = test system: SNB-75 CNS
SW-620 colon = test system: SW-620 colon
T-47D breast = test system: T-47D breast
TK-10 renal = test system: TK-10 renal
U251 CNS = test system: U251 CNS
UACC-257 melanoma = test system: UACC-257 melanoma
UACC-62 melanoma = test system: UACC-62 melanoma
UO-31 renal = test system: UO-31 renal
HOP-92 NSCLC = test system: HOP-92 NSCLC
NCI-H460 lung = test system: NCI-H460 lung
NCI/ADR-RES ovarian = test system: NCI/ADR-RES ovarian

CC(C)(C)c1cc(C(=O)Nc2cc(Br)c(Br)cc2S(N)(=O)=O)cc(C(C)(C)C)c1O
TGI (786-0 renal): 23 µM | TGI (A549 NSCLC): 21.3 µM | TGI (ACHN renal): 23.4 µM | TGI (BT-549 breast): 25.4 µM | TGI (CAKI-1 renal): 22.8 µM | TGI (CCRF-CEM leukemia): 26.6 µM | TGI (COLO 205 colon): 19.1 µM | TGI (DU-145 prostate): 29.2 µM | TGI (EKVX NSCLC): 26.2 µM | TGI (HCC-2998 colon): 18.1 µM | TGI (HCT-116 colon): 20.5 µM | TGI (HCT-15 colon): 16.8 µM | TGI (HOP-62 NSCLC): 35.3 µM | TGI (HS 578T breast): 30.5 µM | TGI (HT29 colon): 16.2 µM | TGI (IGROV1 ovarian): 26.6 µM | TGI (K-562 leukemia): 25.7 µM | TGI (KM12 colon): 36.4 µM | TGI (LOX IMVI melanoma): 19.4 µM | TGI (M14 melanoma): 35.9 µM | TGI (MALME-3M melanoma): 26.6 µM | TGI (MCF7 breast): 18.8 µM | TGI (MDA-MB-231 breast): 26.4 µM | TGI (MDA-MB-435): 24.7 µM | TGI (MOLT-4 leukemia): 18.8 µM | TGI (NCI-H226 lung): 29.3 µM | TGI (NCI-H23 lung): 40 µM | TGI (NCI-H522 lung): 24.3 µM | TGI (OVCAR-3 ovarian): 21.1 µM | TGI (OVCAR-4 ovarian): 28.7 µM | TGI (OVCAR-5 ovarian): 24.9 µM | TGI (OVCAR-8 ovarian): 26.6 µM | TGI (PC-3 prostate): 22.9 µM | TGI (RPMI-8226 leukemia): > 100 µM | TGI (RXF 393 renal): 23.1 µM | TGI (SF-268 CNS): 29 µM | TGI (SF-295 CNS): 27.7 µM | TGI (SF-539 CNS): 32.7 µM | TGI (SK-MEL-2 melanoma): 22.7 µM | TGI (SK-MEL-28 melanoma): 26.2 µM | TGI (SK-MEL-5 melanoma): 25 µM | TGI (SK-OV-3 ovarian): 31.3 µM | TGI (SN12C renal): 21.2 µM | TGI (SNB-19 CNS): 31.1 µM | TGI (SNB-75 CNS): 21.5 µM | TGI (SW-620 colon): 21.4 µM | TGI (T-47D breast): 15.6 µM | TGI (TK-10 renal): 25.5 µM | TGI (U251 CNS): 26.6 µM | TGI (UACC-257 melanoma): 33.1 µM | TGI (UACC-62 melanoma): 23.1 µM | TGI (UO-31 renal): 24.7 µM

COc1ccc2nc3cc(Cl)ccc3c(NCCCN(Cc3cc(OC)c(OC)c(OC)c3)Cc3cc(OC)c(OC)c(OC)c3)c2c1
TGI (786-0 renal): 32.1 µM | TGI (A549 NSCLC): 30.7 µM | TGI (ACHN renal): 27.2 µM | TGI (BT-549 breast): 28 µM | TGI (CAKI-1 renal): 30.3 µM | TGI (COLO 205 colon): 23.5 µM | TGI (DU-145 prostate): 27.3 µM | TGI (EKVX NSCLC): 37.4 µM | TGI (HCC-2998 colon): 37.3 µM | TGI (HCT-116 colon): 1.7 µM | TGI (HOP-62 NSCLC): 24.4 µM | TGI (HOP-92 NSCLC): 23.7 µM | TGI (HS 578T breast): 36.6 µM | TGI (HT29 colon): 16.6 µM | TGI (IGROV1 ovarian): 35.1 µM | TGI (K-562 leukemia): 3.77 µM | TGI (KM12 colon): 28.3 µM | TGI (M14 melanoma): 3.45 µM | TGI (MALME-3M melanoma): 44.1 µM | TGI (MCF7 breast): 30.4 µM | TGI (MDA-MB-231 breast): 10.6 µM | TGI (MOLT-4 leukemia): 7.11 µM | TGI (NCI-H226 lung): 34.5 µM | TGI (NCI-H460 lung): 23.6 µM | TGI (NCI-H522 lung): 25.4 µM | TGI (NCI/ADR-RES ovarian): 86.5 µM | TGI (OVCAR-3 ovarian): 34.6 µM | TGI (OVCAR-5 ovarian): 27.9 µM | TGI (OVCAR-8 ovarian): 25.5 µM | TGI (PC-3 prostate): 30.6 µM | TGI (RPMI-8226 leukemia): 32 µM | TGI (RXF 393 renal): 15.2 µM | TGI (SF-268 CNS): 41.7 µM | TGI (SF-295 CNS): 12.1 µM | TGI (SF-539 CNS): 10.5 µM | TGI (SK-MEL-2 melanoma): 72.1 µM | TGI (SK-MEL-28 melanoma): 33.2 µM | TGI (SK-MEL-5 melanoma): 2.61 µM | TGI (SK-OV-3 ovarian): 32.8 µM | TGI (SN12C renal): 41 µM | TGI (SNB-19 CNS): 35.8 µM | TGI (SW-620 colon): 3.22 µM | TGI (T-47D breast): 47.4 µM | TGI (TK-10 renal): 44.1 µM | TGI (U251 CNS): 17.3 µM | TGI (UACC-257 melanoma): 28.8 µM | TGI (UACC-62 melanoma): 32.3 µM | TGI (UO-31 renal): 26.1 µM
